Measured values from patent US20030017999A1, “Composition for the prevention and /or treatment of lipid metabolism disorders and allergic forms” (priority 2000, published 2003).

How the values were obtained:
[1] = tested on: Mitomycin-induced toxicity (leukocyte depletion); assay: Leukocyte depletion induced by mitomycin C in mice; assay type: in vivo; conditions: mitomycin C 50 μg/mouse peritoneal for five days, alone or with isovaleryl L-carnitine 30 mg/mouse and/or β-glucan 10 mg/mouse; for No. leukocytes after 5 days: day 5; for No. leukocytes after 10 days: day 10; for No. leukocytes after 12 days: day 12
Method: (§1) In these tests a first group of mice received peritoneal injections of 50 μg/mouse of mitomycin C for five consecutive days. In addition to mitomycin, a second group of animals were also injected with isovaleryl L-carnitine alone (30 mg/mouse), a third group with β-glucan alone (10 mg/mouse) and a fourth group with a combination of the two compounds for five consecutive days. On the fifth, tenth and twelfth day following the start of treatment, the number of leukocytes present in the blood and the mortality rates of the animals were evaluated in both treated and control animals.

[2] = tested on: Mitomycin-induced toxicity (mortality); assay: Mortality induced by mitomycin C in mice; assay type: in vivo; conditions: for % animals surviving after 5 days / % animals surviving after 10 days / % animals surviving after 12 days (survival rate): mitomycin C 50 μg/mouse peritoneal for five days, alone or with isovaleryl L-carnitine 30 mg/mouse and/or β-glucan 10 mg/mouse; for % animals surviving after 5 days: day 5; for % animals surviving after 10 days: day 10; for % animals surviving after 12 days (survival rate): day 12
Method: Results of Tests Regarding the Immunostimulant and Protective Effect exerted against Mitomycin-induced Toxicity by the Combination of Isovaleryl L-carnitine and β-glucan
as §1

[3] = tested on: human macrophages from bronchoalveolar lavage fluid; assay: Macrophage stimulation test (phagocytosis and intracellular killing); assay type: cell-based
Method: After filtration, centrifuging and gradient separation on Ficoll, the viability of the cells was evaluated with the trypan blue test. Phagocytosis and intracellular killing were calculated according to the method described by […]. Bacterial, 98:996, 1969).

Structure (SMILES)	No. leukocytes after 5 days [1]	No. leukocytes after 10 days [1]	No. leukocytes after 12 days [1]	% animals surviving after 5 days [2] [%]	% animals surviving after 10 days [2] [%]	% animals surviving after 12 days (survival rate) [2] [%]	mortality rate ([2]; mitomycin C alone 50 μg/mouse peritoneal for five days, twelfth day) [%]	increase in intracellular killing [3] [%]	increase in phagocyte activity [3] [%]
CO[C@@]12[C@H](COC(N)=O)C3=C(C(=O)C(C)=C(N)C3=O)N1C[C@@H]1N[C@@H]12 [Mitomycin C]	5,400 ± 270	3,000 ± 220	1,100 ± 190	50	20	0	100	–	–
CC(C)CC(=O)O[C@H](CC(=O)[O-])C[N+](C)(C)C [Isovaleryl L-carnitine]	5,750 ± 310	4,900 ± 220	3,100 ± 310	50	30	15	–	15	10
